Experimental data reported in US4065557A, “Amino sugars and their use in improving the meat:fat ratio in animals” (Bayer Aktiengesellschaft, priority 1974, dated 1977).

How the values were obtained:
pancreas-α-amylase = target: T1, pancreas-α-amylase (Sus scrofa, UniProt P00690); assay: In vitro amylase test; assay type: biochemical; conditions: isolated product; starch, pH 6.9, 35° C
T1 sequence (P00690 16-511): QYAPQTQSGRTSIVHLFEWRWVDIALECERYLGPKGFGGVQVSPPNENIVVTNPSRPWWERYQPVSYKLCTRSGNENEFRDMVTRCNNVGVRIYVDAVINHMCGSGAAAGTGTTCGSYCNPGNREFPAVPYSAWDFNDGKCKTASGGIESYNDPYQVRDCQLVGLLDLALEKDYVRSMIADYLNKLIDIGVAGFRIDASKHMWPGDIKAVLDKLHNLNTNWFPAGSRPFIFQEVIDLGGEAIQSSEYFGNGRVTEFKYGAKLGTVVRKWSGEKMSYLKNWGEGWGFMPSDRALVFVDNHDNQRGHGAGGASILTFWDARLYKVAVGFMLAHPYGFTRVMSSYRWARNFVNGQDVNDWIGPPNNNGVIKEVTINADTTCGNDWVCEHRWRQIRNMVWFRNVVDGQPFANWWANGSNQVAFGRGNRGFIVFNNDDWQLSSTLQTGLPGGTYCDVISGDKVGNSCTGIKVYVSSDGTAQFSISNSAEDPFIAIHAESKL
Procedure: One amylase unit (AU) is the amount of enzyme which under the test conditions specified below splits 1 μequivalent of glucoside bonds in the starch per minute. […] To carry out the test, 0.1 ml of amylase solution (20-22 AU/ml) are mixed with 0-10 μg of inhibitor or 0-20 μl of the solution to be tested in 0.4 ml of 0.02 M sodium glycerophosphate buffer/0.001 M CaCl2, pH 6.9, and the mixture is equilibrated for 10-20 minutes in a water bath at 35° C. […] To develop the color, the batch is heated for 5 minutes on a boiling water bath and then cooled, and 10 ml of distilled water are added. The extinction at 540 nm is measured against a correspondingly made-up blank without amylase. […] The percentage inhibition is plotted as a function of the quotient [formula]

saccharase = target: T2, saccharase (Sus scrofa, UniProt P56729); assay: In vitro saccharase test; assay type: biochemical, pig; conditions: for saccharase inhibitor specific activity: sucrose, pH 6.0, 35° C
T2 construct: from tissue; host or cells: mucous membrane of the small intestine of the pig, solubilized according to Borgstrom and Dahlquist 1958
Procedure: One saccharase inhibitor unit (SIU) is defined as the amount of inhibitor which inhibits two saccharase units to the extent of 50%. One saccharase unit (SU) is the amount of enzyme which under the test conditions specified splits 1 μmol of sucrose to glucose and fructose per minute. The μmols of glucose formed are determined quantitatively by means of the glucose oxidase reaction under conditions under which a further splitting of the sucrose by the saccharase no longer takes place. To carry out the test, 0.05 ml of solubilized saccharase [from the mucous membrane of the small intestine of the pig, according to B. Borgstrom, A. Dahlquist, Acta Chem. Scand. […] The mixture is equilibrated for 10 minutes at 35° C and 0.1 ml of an 0.05 M sucrose solution in 0.1 m sodium maleate buffer of pH 6.0, pre-warmed to 35° C, is then added. The mixture is incubated for 20 minutes at 35° C, the saccharase reaction is stopped by addition of 1 ml of glucose oxidase reagent, and the incubation is continued for a further 30 minutes at 35° C. […] Thereafter, 1 ml of 50% strength H2 SO4 is added and a measurement carried out at 545 nm against a corresponding blank.

starch digestion = assay: In vivo starch digestion (starch feeding test)
Solubility = assay type: physicochemical

T2 sequence (P56729 with tags, fused parts or gaps limits assumed): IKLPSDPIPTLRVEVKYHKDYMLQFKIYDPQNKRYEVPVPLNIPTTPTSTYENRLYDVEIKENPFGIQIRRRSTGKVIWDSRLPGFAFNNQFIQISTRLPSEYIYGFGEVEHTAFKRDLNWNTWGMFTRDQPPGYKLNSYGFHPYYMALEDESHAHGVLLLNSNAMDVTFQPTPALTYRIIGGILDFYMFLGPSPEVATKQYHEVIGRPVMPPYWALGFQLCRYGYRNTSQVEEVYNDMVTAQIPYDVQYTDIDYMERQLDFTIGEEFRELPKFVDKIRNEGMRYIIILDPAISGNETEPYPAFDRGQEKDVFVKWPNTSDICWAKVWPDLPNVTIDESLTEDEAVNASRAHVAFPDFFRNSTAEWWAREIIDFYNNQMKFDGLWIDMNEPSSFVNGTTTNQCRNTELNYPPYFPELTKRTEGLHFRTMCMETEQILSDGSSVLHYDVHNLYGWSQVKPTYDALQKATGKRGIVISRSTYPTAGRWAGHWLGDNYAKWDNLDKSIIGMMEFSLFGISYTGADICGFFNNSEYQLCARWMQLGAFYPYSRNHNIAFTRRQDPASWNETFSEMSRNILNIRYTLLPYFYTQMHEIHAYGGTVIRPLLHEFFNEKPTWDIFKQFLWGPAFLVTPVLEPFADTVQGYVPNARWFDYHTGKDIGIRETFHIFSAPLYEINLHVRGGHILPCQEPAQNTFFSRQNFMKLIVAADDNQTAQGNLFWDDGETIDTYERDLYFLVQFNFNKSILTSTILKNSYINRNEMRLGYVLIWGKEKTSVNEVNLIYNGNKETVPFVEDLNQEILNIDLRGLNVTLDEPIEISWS
T2 sequence (P56729 with tags, fused parts or gaps partner limits assumed): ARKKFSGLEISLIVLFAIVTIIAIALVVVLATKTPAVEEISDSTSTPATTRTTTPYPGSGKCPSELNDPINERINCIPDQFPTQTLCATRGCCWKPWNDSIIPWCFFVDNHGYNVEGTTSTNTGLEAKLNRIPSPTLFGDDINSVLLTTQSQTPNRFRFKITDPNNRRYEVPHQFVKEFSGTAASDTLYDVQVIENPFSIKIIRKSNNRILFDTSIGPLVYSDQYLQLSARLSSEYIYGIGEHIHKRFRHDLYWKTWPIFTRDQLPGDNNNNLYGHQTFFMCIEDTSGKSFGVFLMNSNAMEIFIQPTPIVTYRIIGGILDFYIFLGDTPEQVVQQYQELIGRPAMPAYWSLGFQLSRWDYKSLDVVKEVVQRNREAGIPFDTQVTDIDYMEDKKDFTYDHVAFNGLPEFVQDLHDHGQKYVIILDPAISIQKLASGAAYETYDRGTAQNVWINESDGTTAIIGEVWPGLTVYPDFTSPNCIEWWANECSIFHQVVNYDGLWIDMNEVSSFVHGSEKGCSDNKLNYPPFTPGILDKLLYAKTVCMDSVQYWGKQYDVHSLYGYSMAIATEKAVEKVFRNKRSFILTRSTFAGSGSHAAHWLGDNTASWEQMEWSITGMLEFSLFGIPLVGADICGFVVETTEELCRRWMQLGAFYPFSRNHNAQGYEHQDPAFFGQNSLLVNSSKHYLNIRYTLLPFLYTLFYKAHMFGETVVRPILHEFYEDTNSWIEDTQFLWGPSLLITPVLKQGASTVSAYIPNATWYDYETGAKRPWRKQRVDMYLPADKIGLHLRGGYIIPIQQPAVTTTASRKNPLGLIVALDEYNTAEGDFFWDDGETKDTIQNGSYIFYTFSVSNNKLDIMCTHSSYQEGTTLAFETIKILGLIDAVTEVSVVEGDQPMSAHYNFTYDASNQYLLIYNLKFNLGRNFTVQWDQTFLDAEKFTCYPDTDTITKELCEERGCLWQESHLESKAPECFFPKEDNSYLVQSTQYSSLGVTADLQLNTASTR

| Structure (SMILES) | amylase inhibitor specific activity (pancreas-α-amylase) | in vitro saccharase inhibition (in words) (saccharase; in vitro) | saccharase inhibitor specific activity (saccharase) | saccharase inhibitor specific activity (saccharase; listed as compound with 2 glucose units) | saccharase inhibitor specific activity (saccharase; listed as compound with 2 units) | saccharase inhibitor specific activity (saccharase; listed as compound with two glucose units) | in vivo inhibition of starch digestion (in words) (starch digestion) | solubility in water (Solubility; amorphous solid) | saccharase inhibition relative to the derivative having two units (saccharase; in vitro) | saccharase inhibitor specific activity (saccharase; listed as compound with one glucose unit) | solubility (Solubility; water, dimethylformamide, dimethylsulfoxide, methanol and hot ethanol) | in vitro saccharase inhibiting activity (saccharase; isomer isolated on Dowex 50 W X 4) |
| --- | --- | --- | --- | --- | --- | --- | --- | --- | --- | --- | --- | --- |
| C[C@H]1O[C@H](O[C@H]2[C@H](O)[C@@H](O)[C@@H](O[C@H]3[C@H](O)[C@@H](O)C(O)O[C@@H]3CO)O[C@@H]2CO)[C@H](O)[C@@H](O)[C@@H]1N[C@H]1C=C(CO)[C@@H](O)[C@H](O)[C@H]1O (stereo partly drawn) [compound having 2 glucose units, O-{4,6-bisdesoxy-4-[1 S-(1,4,6/5)-4,5,6-trihydroxy-3-hydroxymethylcyclohex-2-en-1-ylamino]-α-D-glucopyranosyl}-(1→4)-O-α-D-glucopyranosyl-(1→4)-D-glucopyranose] | 0.3 × 10^6 AIU/g | most pronounced | 50,000 SIU/g | 60,000 SIU/g | 68,000 SIU/g | 65,000 SIU/g | much higher than would be expected from in vitro amylase inhibition | readily water-soluble | – | – | – | – |
| C[C@H]1O[C@H](O[C@H]2[C@H](O)[C@@H](O)C(O)O[C@@H]2CO)[C@H](O)[C@@H](O)[C@@H]1N[C@H]1C=C(CO)[C@@H](O)[C@H](O)[C@H]1O (stereo partly drawn) [compound having one glucose unit, O-{4,6-bisdesoxy-4-[1 S-(1,4,6/5)-4,5,6-trihydroxy-3-hydroxymethylcyclohex-2-en-1-ylamino]-α-D-glucopyranosyl}-(1→4)-D-glucopyranose] | 0.3 × 10^6 AIU/g | – | 30,000 SIU/g | – | – | – | much higher than would be expected from in vitro amylase inhibition | – | only half as much | 35,000 SIU/g | good solubility | – |
| C[C@H]1O[C@H](O[C@H]2[C@H](O)[C@@H](O)[C@@H](O[C@H]3[C@H](O)[C@@H](O)[C@@H](O[C@H]4[C@H](O)[C@@H](O)C(O)O[C@@H]4CO)O[C@@H]3CO)O[C@@H]2CO)[C@H](O)[C@@H](O)[C@@H]1N[C@H]1C=C(CO)[C@@H](O)[C@H](O)[C@H]1O (stereo partly drawn) [isomer of Formula V, O-{4,5-bisdesoxy-4-[1S-(1,4,6/5)-4,5,6-trihydroxy-3-hydroxymethylcyclohex-2-en-1-ylamino]-α-D-glucopyranosyl}-(1→4)-O-α-D-glucopyranosyl-(1→4)-O-α-D-glucopyranosyl-(1→4)-D-glycopyranose] | – | – | – | – | – | – | – | – | – | – | – | 19,000 SIE/g |
